Values after ≈ are worked out from the molar mass of the structure shown.
Legend:
[1] = biological target: T1, Adenosine receptor A2b (Homo sapiens) (UniProt P29275); test: Agonist activity at human A2B receptor expressed in HEK293 cells at 10 uM after 10 mins by HTRF assay relative to control; format: cell-based
T1 sequence (whole entry): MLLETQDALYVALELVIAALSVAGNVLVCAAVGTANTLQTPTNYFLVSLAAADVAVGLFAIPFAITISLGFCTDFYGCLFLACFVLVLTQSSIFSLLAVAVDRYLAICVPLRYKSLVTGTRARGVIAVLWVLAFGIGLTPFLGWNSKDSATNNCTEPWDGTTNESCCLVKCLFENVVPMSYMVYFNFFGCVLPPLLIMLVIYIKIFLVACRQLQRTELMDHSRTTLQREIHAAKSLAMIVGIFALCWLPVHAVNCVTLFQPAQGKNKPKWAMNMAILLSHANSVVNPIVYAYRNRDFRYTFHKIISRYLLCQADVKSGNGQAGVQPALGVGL

[2] = Maximum oral bioavailability in human liver microsomes based well stirred liver model at 1 uM measured after 2 to 60 mins in presence of glucose-6-phosphate by LC-MS/MS analysis; format: ADME, Microsome; settings: read-out: Fmax
[3] = Protein binding in human plasma assessed as unbound fraction; format: ADME, cell-free
[4] = biological target: Voltage-gated inwardly rectifying potassium channel KCNH2 (Homo sapiens, UniProt Q12809); test: Inhibition of human ERG expressed in HEK293 cells at holding potential -80 mV by whole-cell voltage-clamp method; format: cell-based
[5] = Aqueous solubility of the compound at pH 6.5 incubated for 24 hrs under shaking condition by HPLC-MS/MS analysis; format: physicochemical; settings: buffer
[6] = Dose normalized AUC in Wistar rat at 0.5 mg/kg, iv after 2 to 72 hrs by LC-MS/MS analysis; format: ADME, organism-based; settings: in vivo
[7] = Dose normalized Cmax in Wistar rat at 0.5 mg/kg, iv after 2 to 72 hrs by LC-MS/MS analysis; format: ADME, organism-based; settings: in vivo
[8] = Clearance in Wistar rat at 0.5 mg/kg, iv after 2 to 72 hrs by LC-MS/MS analysis; format: ADME, organism-based; settings: in vivo
[9] = Volume of distribution at steady state in Wistar rat at 0.5 mg/kg, iv after 2 to 72 hrs by LC-MS/MS analysis; format: ADME, organism-based; settings: in vivo, read-out: Vdss
[10] = Tmax in Wistar rat at 2 mg/kg, po after 8 to 72 hrs by LC-MS/MS analysis; format: ADME, organism-based; settings: in vivo
[11] = biological target: T2, Adenosine receptor A3 (Homo sapiens) (UniProt P0DMS8); test: Antagonist activity at human A3 receptor expressed in CHO-K1 cells at 10 uM after 20 mins by HTRF assay relative to control; format: cell-based; design: scale not given: the % may be the effect or the level left
T2 sequence (whole entry): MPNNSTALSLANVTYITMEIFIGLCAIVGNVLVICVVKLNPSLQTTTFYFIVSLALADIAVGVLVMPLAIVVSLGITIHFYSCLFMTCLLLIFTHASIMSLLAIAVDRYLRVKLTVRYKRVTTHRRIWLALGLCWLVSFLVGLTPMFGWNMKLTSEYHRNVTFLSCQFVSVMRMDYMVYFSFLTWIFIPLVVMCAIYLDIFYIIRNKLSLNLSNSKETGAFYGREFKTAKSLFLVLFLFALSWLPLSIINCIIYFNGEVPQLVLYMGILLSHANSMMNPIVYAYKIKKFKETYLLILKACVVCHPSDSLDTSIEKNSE

[12] = biological target: D(1A) dopamine receptor (Homo sapiens) (UniProt P21728); test: Agonist activity at human D1 receptor expressed in CHO-K1 cells at 10 uM after 30 mins HTRF assay relative to control; format: cell-based
[13] = biological target: D(2) dopamine receptor (Homo sapiens) (UniProt P14416); test: Agonist activity at human Dopamine D2L receptor expressed in CHO-K1 cells at 10 uM by Fluorimetric analysis relative to control; format: cell-based
[14] = biological target: Histamine H3 receptor (Homo sapiens) (UniProt Q9Y5N1); test: Agonist activity at human histamine H3 receptor expressed in CHO-K1 cells at 10 uM after 10 mins by HTRF assay relative to control; format: cell-based
[15] = biological target: Melanocortin receptor 4 (Homo sapiens) (UniProt P32245); test: Agonist activity at human MC4 receptor expressed in CHO-K1 cells at 10 uM after 30 mins by HTRF assay relative to control; format: cell-based
[16] = biological target: Motilin receptor (Homo sapiens) (UniProt O43193); test: Antagonist activity at human Motilin receptor expressed in CHO-K1 cells at 10 uM by fluorimetric method relative to control; format: cell-based; design: scale not given: the % may be the effect or the level left
[17] = biological target: Muscarinic acetylcholine receptor M4 (Homo sapiens) (UniProt P08173); test: Agonist activity at human muscarinic M4 receptor expressed in CHO-K1 cells at 10 uM after 10 mins by HTRF method relative to control; format: cell-based
[18] = biological target: Substance-P receptor (Homo sapiens) (UniProt P25103); test: Antagonist activity at human NK1 receptor expressed in U373 MG cells at 10 uM by fluorimetric method relative to control; format: cell-based; design: scale not given: the % may be the effect or the level left; settings: U-373MG ATCC
[19] = biological target: Kappa-type opioid receptor (Homo sapiens) (UniProt P41145); test: Agonist activity at human kappa opioid receptor at 10 uM by Spectrophotometric method relative to control
[20] = biological target: Mu-type opioid receptor (Homo sapiens) (UniProt P35372); test: Antagonist activity at human mu opioid receptor expressed in CHO-K1 cells at 10 uM after 10 mins by HTRF assay relative to control; format: cell-based; design: scale not given: the % may be the effect or the level left
[21] = biological target: T3, 5-hydroxytryptamine receptor 1A (Homo sapiens) (UniProt P08908); test: Antagonist activity at human 5-HT1A receptor expressed in mouse BA/F3 cells at 10 uM by fluorimetric method relative to control; format: cell-based; design: scale not given: the % may be the effect or the level left
T3 sequence (whole entry): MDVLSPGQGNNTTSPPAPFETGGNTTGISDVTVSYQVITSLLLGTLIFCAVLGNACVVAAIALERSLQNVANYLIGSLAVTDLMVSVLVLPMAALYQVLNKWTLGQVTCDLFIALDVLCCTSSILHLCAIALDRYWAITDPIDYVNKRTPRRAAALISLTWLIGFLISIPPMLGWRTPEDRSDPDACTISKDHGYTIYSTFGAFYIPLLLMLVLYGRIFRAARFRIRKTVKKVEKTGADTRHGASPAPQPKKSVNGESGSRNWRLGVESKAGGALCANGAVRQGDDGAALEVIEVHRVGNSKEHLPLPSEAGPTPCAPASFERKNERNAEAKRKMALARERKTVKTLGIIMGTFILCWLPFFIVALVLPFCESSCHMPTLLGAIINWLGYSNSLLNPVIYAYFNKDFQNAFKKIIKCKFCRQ

[22] = biological target: 5-hydroxytryptamine receptor 2B (Homo sapiens) (UniProt P41595); test: Agonist activity at human 5-HT2B receptor expressed in CHO-K1 cells at 10 uM after 30 mins by HTRF assay relative to control; format: cell-based
[23] = biological target: 5-hydroxytryptamine receptor 6 (Homo sapiens) (UniProt P50406); test: Antagonist activity at human 5-HT6 receptor expressed in CHO-K1 cells at 10 uM after 30 mins by HTRF assay relative to control; format: cell-based; design: scale not given: the % may be the effect or the level left
Rattus norvegicus = test: Downregulation of estradiol level in proestrus staged-female rat serum at 12.5 mg/kg, po administered once daily for 8 days and measured by radioimmunoassay method (reference value: 144 pmol/L); format: functional

Sequence of Voltage-gated inwardly rectifying potassium channel KCNH2 (Q12809 whole entry): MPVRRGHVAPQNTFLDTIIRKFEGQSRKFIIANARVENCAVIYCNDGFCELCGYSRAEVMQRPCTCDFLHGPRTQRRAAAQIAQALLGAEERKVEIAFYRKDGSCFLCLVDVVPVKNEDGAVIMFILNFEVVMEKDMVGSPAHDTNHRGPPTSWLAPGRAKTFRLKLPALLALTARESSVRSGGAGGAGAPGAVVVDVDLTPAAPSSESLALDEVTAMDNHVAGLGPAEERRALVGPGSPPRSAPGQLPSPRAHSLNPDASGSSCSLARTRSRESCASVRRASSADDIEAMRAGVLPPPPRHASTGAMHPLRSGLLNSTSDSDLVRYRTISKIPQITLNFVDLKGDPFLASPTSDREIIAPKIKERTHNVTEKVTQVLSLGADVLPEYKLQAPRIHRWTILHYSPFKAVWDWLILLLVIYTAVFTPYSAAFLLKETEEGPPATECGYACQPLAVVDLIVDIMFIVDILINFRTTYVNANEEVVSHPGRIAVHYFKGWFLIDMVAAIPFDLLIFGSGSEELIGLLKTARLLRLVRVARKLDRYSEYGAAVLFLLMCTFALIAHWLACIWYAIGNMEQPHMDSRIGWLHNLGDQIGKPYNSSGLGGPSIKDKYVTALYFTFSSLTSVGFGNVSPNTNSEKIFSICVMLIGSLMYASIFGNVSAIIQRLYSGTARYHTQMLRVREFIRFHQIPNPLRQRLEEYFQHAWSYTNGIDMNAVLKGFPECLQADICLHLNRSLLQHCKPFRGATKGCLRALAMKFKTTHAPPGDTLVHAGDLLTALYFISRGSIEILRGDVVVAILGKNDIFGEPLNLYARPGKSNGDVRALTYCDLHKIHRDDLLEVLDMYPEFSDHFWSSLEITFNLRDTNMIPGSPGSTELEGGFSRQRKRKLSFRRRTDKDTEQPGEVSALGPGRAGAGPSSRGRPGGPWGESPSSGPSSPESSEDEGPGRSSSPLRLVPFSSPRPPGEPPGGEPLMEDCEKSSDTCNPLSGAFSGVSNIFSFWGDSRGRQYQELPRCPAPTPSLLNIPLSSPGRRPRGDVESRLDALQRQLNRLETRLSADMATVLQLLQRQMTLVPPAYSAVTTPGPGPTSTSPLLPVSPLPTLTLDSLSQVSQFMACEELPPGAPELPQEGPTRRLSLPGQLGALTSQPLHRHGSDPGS
Sequence of 5-hydroxytryptamine receptor 2B (Homo sapiens) (P41595 whole entry): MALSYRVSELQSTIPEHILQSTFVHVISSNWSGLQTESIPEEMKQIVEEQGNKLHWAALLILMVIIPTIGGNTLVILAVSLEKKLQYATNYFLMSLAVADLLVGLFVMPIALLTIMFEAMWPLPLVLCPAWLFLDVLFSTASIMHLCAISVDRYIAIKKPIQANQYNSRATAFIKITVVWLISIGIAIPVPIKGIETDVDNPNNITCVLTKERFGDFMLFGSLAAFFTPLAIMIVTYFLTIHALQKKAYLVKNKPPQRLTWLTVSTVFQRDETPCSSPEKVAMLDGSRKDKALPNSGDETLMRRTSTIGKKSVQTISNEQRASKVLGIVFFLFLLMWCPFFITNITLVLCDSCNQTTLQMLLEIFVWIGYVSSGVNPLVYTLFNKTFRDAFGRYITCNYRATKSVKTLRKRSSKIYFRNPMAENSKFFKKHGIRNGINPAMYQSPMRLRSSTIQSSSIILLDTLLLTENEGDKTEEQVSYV
Sequence of D(1A) dopamine receptor (Homo sapiens) (P21728 whole entry): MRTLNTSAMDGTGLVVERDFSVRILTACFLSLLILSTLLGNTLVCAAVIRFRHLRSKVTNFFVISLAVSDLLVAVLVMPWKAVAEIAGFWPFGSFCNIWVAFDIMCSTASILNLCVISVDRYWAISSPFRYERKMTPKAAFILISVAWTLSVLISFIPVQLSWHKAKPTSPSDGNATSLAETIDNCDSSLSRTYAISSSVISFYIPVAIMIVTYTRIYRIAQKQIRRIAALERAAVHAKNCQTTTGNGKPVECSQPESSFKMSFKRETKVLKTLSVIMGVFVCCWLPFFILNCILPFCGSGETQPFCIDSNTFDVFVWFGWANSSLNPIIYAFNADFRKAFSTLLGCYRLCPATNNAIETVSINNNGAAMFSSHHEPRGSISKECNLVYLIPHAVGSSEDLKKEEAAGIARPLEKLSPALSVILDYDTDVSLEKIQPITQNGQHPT
Sequence of Melanocortin receptor 4 (Homo sapiens) (P32245 whole entry): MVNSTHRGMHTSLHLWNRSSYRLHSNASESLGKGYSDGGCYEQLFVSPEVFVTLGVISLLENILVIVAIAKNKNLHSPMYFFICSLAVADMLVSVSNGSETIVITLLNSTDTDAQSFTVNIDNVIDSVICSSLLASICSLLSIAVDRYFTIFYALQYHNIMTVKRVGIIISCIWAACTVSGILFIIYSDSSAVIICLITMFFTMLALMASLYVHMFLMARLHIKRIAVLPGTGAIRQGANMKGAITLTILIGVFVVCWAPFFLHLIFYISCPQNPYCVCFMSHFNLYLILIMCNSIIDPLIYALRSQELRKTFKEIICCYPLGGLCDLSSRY
Sequence of Histamine H3 receptor (Homo sapiens) (Q9Y5N1 whole entry): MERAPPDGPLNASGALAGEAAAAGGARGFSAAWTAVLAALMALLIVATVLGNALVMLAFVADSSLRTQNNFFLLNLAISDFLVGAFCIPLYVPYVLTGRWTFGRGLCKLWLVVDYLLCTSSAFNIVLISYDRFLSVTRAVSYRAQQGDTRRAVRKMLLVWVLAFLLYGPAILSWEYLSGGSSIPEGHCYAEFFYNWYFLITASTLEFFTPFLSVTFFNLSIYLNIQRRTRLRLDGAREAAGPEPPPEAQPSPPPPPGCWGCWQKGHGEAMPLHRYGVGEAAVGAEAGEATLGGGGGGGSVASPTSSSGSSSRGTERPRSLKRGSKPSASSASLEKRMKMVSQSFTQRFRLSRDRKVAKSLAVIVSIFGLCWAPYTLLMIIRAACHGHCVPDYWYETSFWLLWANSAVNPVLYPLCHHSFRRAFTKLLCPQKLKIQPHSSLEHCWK
Sequence of Motilin receptor (Homo sapiens) (O43193 whole entry): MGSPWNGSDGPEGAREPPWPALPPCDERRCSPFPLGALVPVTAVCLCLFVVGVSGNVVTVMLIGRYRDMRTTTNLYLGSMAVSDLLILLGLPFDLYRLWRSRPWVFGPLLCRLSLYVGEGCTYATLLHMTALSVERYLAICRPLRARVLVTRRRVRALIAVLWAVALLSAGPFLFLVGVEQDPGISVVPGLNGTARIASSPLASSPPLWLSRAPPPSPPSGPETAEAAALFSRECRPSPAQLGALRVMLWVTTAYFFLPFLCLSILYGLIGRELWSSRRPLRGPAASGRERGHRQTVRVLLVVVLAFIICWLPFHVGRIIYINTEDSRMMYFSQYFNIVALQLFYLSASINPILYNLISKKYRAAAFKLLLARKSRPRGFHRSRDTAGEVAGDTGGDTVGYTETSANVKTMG
Sequence of Muscarinic acetylcholine receptor M4 (Homo sapiens) (P08173 whole entry): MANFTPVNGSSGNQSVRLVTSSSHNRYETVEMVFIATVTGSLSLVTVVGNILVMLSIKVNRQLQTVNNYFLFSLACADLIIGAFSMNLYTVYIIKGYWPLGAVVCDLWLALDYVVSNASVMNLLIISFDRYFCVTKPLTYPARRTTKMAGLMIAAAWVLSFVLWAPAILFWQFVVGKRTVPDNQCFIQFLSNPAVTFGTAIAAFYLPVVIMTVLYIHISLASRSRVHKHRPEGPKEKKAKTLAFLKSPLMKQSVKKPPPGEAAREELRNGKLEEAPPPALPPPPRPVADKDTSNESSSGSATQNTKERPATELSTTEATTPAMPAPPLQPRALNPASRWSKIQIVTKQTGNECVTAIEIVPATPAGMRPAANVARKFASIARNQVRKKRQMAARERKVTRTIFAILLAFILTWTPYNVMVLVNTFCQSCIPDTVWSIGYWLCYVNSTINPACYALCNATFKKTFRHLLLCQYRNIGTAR
Sequence of Substance-P receptor (Homo sapiens) (P25103 whole entry): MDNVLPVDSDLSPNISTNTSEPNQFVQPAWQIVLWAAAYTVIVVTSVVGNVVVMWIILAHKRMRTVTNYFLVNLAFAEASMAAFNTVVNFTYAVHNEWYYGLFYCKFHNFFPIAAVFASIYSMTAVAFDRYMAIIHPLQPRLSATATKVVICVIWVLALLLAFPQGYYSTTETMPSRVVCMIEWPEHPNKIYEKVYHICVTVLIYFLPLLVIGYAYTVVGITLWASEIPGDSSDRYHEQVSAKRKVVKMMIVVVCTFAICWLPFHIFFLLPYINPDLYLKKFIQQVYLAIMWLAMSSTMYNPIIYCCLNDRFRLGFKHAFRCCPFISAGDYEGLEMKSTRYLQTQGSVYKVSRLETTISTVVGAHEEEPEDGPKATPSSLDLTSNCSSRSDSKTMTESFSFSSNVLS
Sequence of D(2) dopamine receptor (Homo sapiens) (P14416 whole entry): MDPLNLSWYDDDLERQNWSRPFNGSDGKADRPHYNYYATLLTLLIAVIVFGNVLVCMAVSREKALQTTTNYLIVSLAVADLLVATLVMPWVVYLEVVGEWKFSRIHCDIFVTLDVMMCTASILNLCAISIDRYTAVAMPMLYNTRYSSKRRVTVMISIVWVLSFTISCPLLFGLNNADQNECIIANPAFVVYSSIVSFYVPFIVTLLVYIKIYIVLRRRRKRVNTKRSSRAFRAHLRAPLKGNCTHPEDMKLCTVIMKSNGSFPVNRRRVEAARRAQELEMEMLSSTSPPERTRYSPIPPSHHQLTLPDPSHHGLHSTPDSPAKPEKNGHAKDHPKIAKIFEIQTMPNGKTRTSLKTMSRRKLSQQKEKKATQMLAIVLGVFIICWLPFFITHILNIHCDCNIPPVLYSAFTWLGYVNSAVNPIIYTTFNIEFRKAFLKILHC
Sequence of Kappa-type opioid receptor (Homo sapiens) (P41145 whole entry): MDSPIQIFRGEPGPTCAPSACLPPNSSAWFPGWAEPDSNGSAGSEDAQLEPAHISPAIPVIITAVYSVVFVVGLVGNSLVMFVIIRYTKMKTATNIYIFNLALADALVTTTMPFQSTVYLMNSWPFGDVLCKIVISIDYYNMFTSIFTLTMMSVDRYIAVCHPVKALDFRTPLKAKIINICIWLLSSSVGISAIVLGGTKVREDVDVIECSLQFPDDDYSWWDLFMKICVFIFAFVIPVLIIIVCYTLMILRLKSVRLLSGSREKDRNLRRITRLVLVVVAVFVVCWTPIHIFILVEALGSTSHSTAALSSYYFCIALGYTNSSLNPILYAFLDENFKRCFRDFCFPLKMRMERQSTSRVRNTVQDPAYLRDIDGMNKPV

Row | Activity [1] [%] | Fh at 1 µM [2] [%] | fraction unbound [3] | solubility at 24 h [5] [µg/mL] | AUC/dose [6] [kg·h/L] | Cmax/dose [7] [kg/L] | clearance [8] [mL/min/kg] | Vd [9] [L/kg] | Tmax [10] [h] | Activity [11] [%] | Activity [12] [%] | Activity [13] [%] | Activity [14] [%] | Activity [15] [%] | Activity [16] [%] | Activity [17] [%] | Activity [18] [%] | Activity [19] [%] | Activity [20] [%] | Compound | IC50 [4] [µM] | also measured
1 | < 70 | 89 | 0.017 | 39 (≈ 84.9 µM) | 2.5 | 0.28 | 6.83 | 16 | 8 | < 70 | < 70 | < 70 | < 70 | < 70 | < 70 | < 70 | < 70 | < 70 | < 70 | O=C(Nc1cnc(Oc2ccc(F)cc2)nc1)N1CCc2ncccc2[C@@H]1c1ccc(F)cc1 [BAY-899] | 10.6 | Activity [21]: < 70%; Activity [22]: < 70%; Activity [23]: < 70%; Activity (Rattus norvegicus): 54 pmol/L
2 | < 70 | 85 | 0.002 | 3.5 (≈ 7.38 µM) | 9.4 | 0.97 | 1.83 | 1.8 | 24 | < 70 | < 70 | < 70 | < 70 | < 70 | < 70 | < 70 | < 70 | < 70 | < 70 | O=C(Nc1ccc(Oc2ccc(F)cc2)cc1)N1CCc2ncccc2[C@@H]1c1ccc(Cl)cc1 | 3 | Activity [21]: < 70%; Activity [22]: < 70%; Activity [23]: < 70%; Activity (Rattus norvegicus): 57 pmol/L

Reference: ChEMBL document CHEMBL4321836, “Discovery of BAY-298 and BAY-899: Tetrahydro-1,6-naphthyridine-Based, Potent, and Selective Antagonists of the Luteinizing Hormone Receptor Which Reduce Sex Hormone Levels in Vivo” (J Med Chem, 2019)
